Source: patent US20240390660A1, “APPARATUS, SYSTEMS AND METHODS FOR TRANSDERMAL DRUG DELIVERY, PERMEABILITY ENHANCEMENT AND AUGMENTATION” (University of Iowa Research Foundation, priority 2021, published 2024)
Counter-ions that a name gives are not always drawn.

Columns and labels:
[1] = in vivo; cited from earlier work
[2] = In vivo pharmacokinetics studies, dMN + NLX-HCL gel with or without heating pod; set-up: species or system albino Hartley guinea pigs; settings: for enhancement in plasma concentration achieved with heat (vs no heat): 1 dMN; for plasma concentration, 2 dMN vs 1 dMN: non-heated
From the text: In Vivo Pharmacokinetics Studies. Preliminary in vivo data were collected in male (n=3) and female (n=2) albino Hartley guinea pigs (a common small animal model for dermal drug studies). All study procedures were IACUC approved. A crossover study design was used, dMN with and without use of heat (described in Table 5). The dorsal hair was clipped (not shaved) a day prior to studies. Either one or two dMN arrays (for a total of 100 or 200 dMNs total) were applied to the dorsal skin of the animal using gentle thumb pressure, and the backing of the dMN was removed.
The heat reaction was initiated by removing the protective tape cover. This was the same approach and conditions as used for the in vitro studies. […] Blood samples were collected at 0, 5, 10, 15, 30, 60, 75, 90, and 120 min. Plasma was separated from the blood immediately after collection and stored at −80° C. until analysis. A thermocouple probe in contact with the skin during the in vivo studies was used to record the skin temperature at the same timepoints as blood sampling.
The mixture was vortexed for 60 sec and centrifuged at 10,000 rpm for 15 min. The supernatant ethyl acetate layer was pipetted off and placed in a 5 mL glass tube under dry nitrogen to evaporate the organic layer. The dried residues were reconstituted with 100 μL 0.1% formic acid and analyzed using LC/MS.
Data Analysis. […] It is understood that when discussed herein, 1 dMN refers to a condition with a single, 100 microneedle array and 2 dMN refers to a condition with two arrays. All conditions were compared with and without the heating pod. […] For all analyses, p<0.05 was considered statistically significant.

SMILES | NLX population clearance [1] | enhancement in plasma concentration achieved with heat (vs no heat) ([2]; 5 min) | enhancement in plasma concentration achieved with heat (vs no heat) ([2]; 15 min) | enhancement in plasma concentration achieved with heat (vs no heat) ([2]; 30 min) | enhancement in plasma concentration achieved with heat (vs no heat) ([2]; 60 min) | AUC with heat compared to the same conditions without heat ([2]; 2 dMN, 0-5, 0-15, 0-30 and 0-60 min, p<0.05) | enhancement of plasma concentrations by applied heat ([2]; 2 dMN, 5 min) | enhancement of plasma concentrations by applied heat ([2]; 2 dMN, 15 min) | enhancement of plasma concentrations by applied heat ([2]; 2 dMN, 30 min) | enhancement of plasma concentrations by applied heat ([2]; 2 dMN, 60 min) | normalized plasma concentrations, heated vs dMN without heat ([2]; 2 or 1 dMN arrays) | normalized plasma concentrations, 1 vs 2 dMN ([2]; heated or not heated, at 5, 15, 30 and 60 min) | AUC 2 dMN vs 1 dMN ([2]; heated, all time ranges tested, p<0.05) | plasma concentration, 2 dMN vs 1 dMN ([2]; 5 min) | plasma concentration, 2 dMN vs 1 dMN ([2]; 15 min) | plasma concentration, 2 dMN vs 1 dMN ([2]; 30 min) | plasma concentration, 2 dMN vs 1 dMN ([2]; 60 min)
C=CCN1CC[C@]23c4c5ccc(O)c4O[C@H]2C(=O)CC[C@@]3(O)[C@H]1C5 [NLX, naloxone] | 91 L/h |  |  |  |  |  |  |  |  |  |  |  |  |  |  |  | 
C=CCN1CC[C@]23c4c5ccc(O)c4O[C@H]2C(=O)CC[C@@]3(O)[C@H]1C5 [NLX-HCL, naloxone hydrochloride] |  | 2.4 | 1.3 | 1.2 | 1.4 | significantly higher | 2.1 × | 2.2 × | 2.1 × | 1.8 × | not significantly higher | no statistically significant differences | significantly higher | 2.1 × | 1.6 × | 2.0 × | 2.3 ×
